Measured values reported in patent US20100056524A1, “Compound” (priority 2008, published 2010).
Where a name gives a salt, the structure may show the parent alone.

target: T1, TBK1 (Homo sapiens, UniProt Q9UHD2); test: TBK1 protein kinase assay ([γ-33P]ATP, P81 filterplates); format: biochemical; conditions: 50 μM ATP; read-out: Potency (TBK1 IC50 potency score)
T1 construct: All protein kinases were of human origin and encoded full length proteins, unless indicated otherwise; His6; made in house; host or cells: insect Sf21 cells
T1 sequence (Q9UHD2 1-729): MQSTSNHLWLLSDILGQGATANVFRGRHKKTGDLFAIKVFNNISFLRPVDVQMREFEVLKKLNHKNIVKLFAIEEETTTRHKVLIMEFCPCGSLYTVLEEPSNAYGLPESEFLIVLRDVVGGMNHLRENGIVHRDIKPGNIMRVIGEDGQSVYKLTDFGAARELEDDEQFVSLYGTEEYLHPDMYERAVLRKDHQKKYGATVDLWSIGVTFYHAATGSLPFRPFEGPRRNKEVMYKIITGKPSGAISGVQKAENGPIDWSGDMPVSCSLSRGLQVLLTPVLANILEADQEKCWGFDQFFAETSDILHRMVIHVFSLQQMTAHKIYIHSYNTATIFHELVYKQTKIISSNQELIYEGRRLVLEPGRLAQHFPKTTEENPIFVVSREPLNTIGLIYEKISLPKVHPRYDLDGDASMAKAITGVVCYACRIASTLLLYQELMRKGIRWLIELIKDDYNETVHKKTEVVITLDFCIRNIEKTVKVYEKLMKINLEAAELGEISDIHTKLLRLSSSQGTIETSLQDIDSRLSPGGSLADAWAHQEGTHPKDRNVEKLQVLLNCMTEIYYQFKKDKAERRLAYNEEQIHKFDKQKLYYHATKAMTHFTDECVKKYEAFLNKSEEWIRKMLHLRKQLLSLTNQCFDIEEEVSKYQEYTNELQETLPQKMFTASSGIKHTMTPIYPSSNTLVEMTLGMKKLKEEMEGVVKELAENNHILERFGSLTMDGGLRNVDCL
Outline: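 Human TBK1 assayed for 30 min with peptide substrate (300 μM), 50 μM [γ-33P]ATP and 10 mM magnesium acetate in 50 mM Tris/HCl pH 7.5, 0.1 mM EGTA, 0.1% 2-mercaptoethanol. Stopped with orthophosphoric acid and counted on P81 filters. IC50 from 10 compound concentrations.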

`COCCNC(=O)c1cccc(Nc2ncc(C3CC3)c(NCCCNC(=O)C3CCC3)n2)c1` [Example 73, 3-{4-[3-(Cyclobutanecarbonyl-amino)-propylamino]-5-cyclopropyl-pyrimidin-2-ylamino}-N-(2-methoxy-ethyl)-benzamide] and `O=C(NCCc1c[nH]cn1)c1cccc(Nc2ncc(C3CC3)c(NCCCNC(=O)C3CCC3)n2)c1` [Example 74, 3-{4-[3-(Cyclobutanecarbonyl-amino)-propylamino]-5-cyclopropyl-pyrimidin-2-ylamino}-N-[2-(1H-imidazol-4-yl)-ethyl]-benzamide] cannot be ordered by IC50: less than 100 nM for the first, less than 100 nM for the second.

`O=C(NCCCNc1nc(Nc2cccc(C(=O)N3CCOCC3)c2)ncc1C1CC1)C1CCC1` [Example 75, Cyclobutanecarboxylic acid (3-{5-cyclopropyl-2-[3-(morpholine-4-carbonyl)-phenylamino]-pyrimidin-4-ylamino}-propyl)-amide] and `CN1CCN(C(=O)c2cccc(Nc3ncc(C4CC4)c(NCCCNC(=O)C4CCC4)n3)c2)CC1` [Example 77, Cyclobutanecarboxylic acid (3-{5-cyclopropyl-2-[3-(4-methyl-piperazine-1-carbonyl)-phenylamino]-pyrimidin-4-ylamino}-propyl)-amide] cannot be ordered by IC50: less than 100 nM for the first, less than 100 nM for the second.

`CN(C)CCN(C)C(=O)c1cccc(Nc2ncc(C3CC3)c(NCCCNC(=O)C3CCC3)n2)c1` [Example 76, 3-{4-[3-(Cyclobutanecarbonyl-amino)-propylamino]-5-cyclopropyl-pyrimidin-2-ylamino}-N-(2-dimethylamino-ethyl)-N-methyl-benzamide] and `CN(C)CCCN(C)C(=O)c1cccc(Nc2ncc(C3CC3)c(NCCCNC(=O)C3CCC3)n2)c1` [Example 79, 3-{4-[3-(Cyclobutanecarbonyl-amino)-propylamino]-5-cyclopropyl-pyrimidin-2-ylamino}-N-(3-dimethylamino-propyl)-N-methyl-benzamide] cannot be ordered by IC50: less than 100 nM for the first, less than 100 nM for the second.

Compared with `CN1CCC(CNC(=O)c2cccc(Nc3ncc(C4CC4)c(NCCCNC(=O)C4CCC4)n3)c2)CC1` [Example 78, 3-{4-[3-(Cyclobutanecarbonyl-amino)-propylamino]-5-cyclopropyl-pyrimidin-2-ylamino}-N-(1-methyl-piperidin-4-ylmethyl)-benzamide], `CN1CCC(NC(=O)c2cccc(Nc3ncc(C4CC4)c(NCCCNC(=O)C4CCC4)n3)c2)CC1` [Example 82, 3-{4-[3-(Cyclobutanecarbonyl-amino)-propylamino]-5-cyclopropyl-pyrimidin-2-ylamino}-N-(1-methyl-piperidin-4-yl)-benzamide] is higher in IC50: less than 100 nM for the first, 100 to 1000 nM for the second. The first is the more potent here.

`CN(CCN1CCOCC1)C(=O)c1cccc(Nc2ncc(C3CC3)c(NCCCNC(=O)C3CCC3)n2)c1` [Example 80, 3-{4-[3-(Cyclobutanecarbonyl-amino)-propylamino]-5-cyclopropyl-pyrimidin-2-ylamino}-N-methyl-N-(2-morpholin-4-yl-ethyl)-benzamide] and `CN(CCN1CCOCC1)c1ccc(Nc2ncc(C3CC3)c(NCCCNC(=O)C3CCC3)n2)cn1` [Example 102, Cyclobutanecarboxylic acid [3-(5-cyclopropyl-2-{6-[methyl-(2-morpholin-4-yl-ethyl)-amino]-pyridin-3-ylamino}-pyrimidin-4-ylamino)-propyl]-amide] cannot be ordered by IC50: less than 100 nM for the first, less than 100 nM for the second.

`CN(C)C1CCN(C(=O)c2cccc(Nc3ncc(C4CC4)c(NCCCNC(=O)C4CCC4)n3)c2)CC1` [Example 81, Cyclobutanecarboxylic acid (3-{5-cyclopropyl-2-[3-(4-dimethylamino-piperidine-1-carbonyl)-phenylamino]-pyrimidin-4-ylamino}-propyl)-amide] and `CN1CCN(c2cccc(Nc3ncc(C4CC4)c(NCCCNC(=O)C4CCC4)n3)c2)CC1` [Example 91, Cyclobutanecarboxylic acid (3-{5-cyclopropyl-2-[3-(4-methyl-piperazin-1-yl)-phenylamino]-pyrimidin-4-ylamino}-propyl)-amide. Trifluoroacetic acid salt] cannot be ordered by IC50: less than 100 nM for the first, less than 100 nM for the second.

`O=C(NCCCNc1nc(Nc2cccc(Cn3cncn3)c2)ncc1C1CC1)C1CCC1` [Example 83, Cyclobutanecarboxylic acid {3-[5-cyclopropyl-2-(3-1,2,4-triazol-1-ylmethyl-phenylamino)-pyrimidin-4-ylamino]-propyl}-amide] and `O=C(NCCCNc1nc(Nc2cccc(-n3cncn3)c2)ncc1C1CC1)C1CCC1` [Example 86, Cyclobutanecarboxylic acid (3-{5-cyclopropyl-2-[3-(2H-1,2,4-triazol-1-yl)-phenylamino]-pyrimidin-4-ylamino}-propyl)-amide] cannot be ordered by IC50: less than 100 nM for the first, less than 100 nM for the second.

`Cn1ccc(-c2cccc(Nc3ncc(C4CC4)c(NCCCNC(=O)C4CCC4)n3)c2)n1` [Example 84, Cyclobutanecarboxylic acid (3-{5-cyclopropyl-2-[3-(1-methyl-1H-pyrazol-3-yl)-phenylamino]-pyrimidin-4-ylamino}-propyl)-amide] and `O=C(NCCCNc1nc(Nc2cccc(-c3cnco3)c2)ncc1C1CC1)C1CCC1` [Example 87, Cyclobutanecarboxylic acid {3-[5-cyclopropyl-2-(3-oxazol-5-yl-phenylamino)-pyrimidin-4-ylamino]-propyl}-amide] cannot be ordered by IC50: less than 100 nM for the first, less than 100 nM for the second.

`O=C(NCCCNc1nc(Nc2ccc(F)c(F)c2)ncc1C1CC1)C1CCC1` [Example 85, Cyclobutanecarboxylic acid {3-[5-cyclopropyl-2-(3,4-difluoro-phenylamino)-pyrimidin-4-ylamino]-propyl}-amide] and `O=C(NCCCNc1nc(Nc2ccc3nc[nH]c3c2)ncc1C1CC1)C1CCC1` [Example 96, Cyclobutanecarboxylic acid {3-[2-(3H-benzimidazol-5-ylamino)-5-cyclopropyl-pyrimidin-4-ylamino]-propyl}-amide] cannot be ordered by IC50: less than 100 nM for the first, less than 100 nM for the second.

`O=C1NCc2ccc(Nc3ncc(C4CC4)c(NCCCNC(=O)C4CCC4)n3)cc21` [Example 88, Cyclobutanecarboxylic acid {3-[5-cyclopropyl-2-(3-oxo-2,3-dihydro-1H-isoindol-5-ylamino)-pyrimidin-4-ylamino]-propyl}-amide hydrochloride salt] and `O=C1NCc2cc(Nc3ncc(C4CC4)c(NCCCNC(=O)C4CCC4)n3)ccc21` [Example 90, Cyclobutanecarboxylic acid {3-[5-cyclopropyl-2-(1-oxo-2,3-dihydro-1H-isoindol-5-ylamino)-pyrimidin-4-ylamino]-propyl}-amide. Trifluoroacetic acid salt] cannot be ordered by IC50: less than 100 nM for the first, less than 100 nM for the second.

`O=C(NCc1ncc[nH]1)c1cccc(Nc2ncc(C3CC3)c(NCCCNC(=O)C3CCC3)n2)c1` [Example 89, 3-{4-[3-(Cyclobutanecarbonyl-amino)-propylamino]-5-cyclopropyl-pyrimidin-2-ylamino}-N-(1H-imidazol-2-ylmethyl)-benzamide. Hydrochloride salt] and `O=C(O)Cc1cccc(Nc2ncc(C3CC3)c(NCCCNC(=O)C3CCC3)n2)c1` [Example 95, (3-{4-[3-(Cyclobutanecarbonyl-amino)-propylamino]-5-cyclopropyl-pyrimidin-2-ylamino}-phenyl)-acetic acid. Hydrochloride] cannot be ordered by IC50: less than 100 nM for the first, less than 100 nM for the second.

`O=C(NCCCNc1nc(Nc2ccc(N3CCOCC3)nc2)ncc1C1CC1)C1CCC1` [Example 93, Cyclobutanecarboxylic acid {3-[5-cyclopropyl-2-(6-morpholin-4-yl-pyridin-3-ylamino)-pyrimidin-4-ylamino]-propyl}-amide] and `O=C(NCCCNc1nc(Nc2ccc(Br)nc2)ncc1C1CC1)C1CCC1` [Example 97, Cyclobutanecarboxylic acid {3-[2-(6-bromo-pyridin-3-ylamino)-5-cyclopropyl-pyrimidin-4-ylamino]-propyl}-amide] cannot be ordered by IC50: less than 100 nM for the first, less than 100 nM for the second.

First: O=C(NCCCNc1nc(Nc2cccc(-c3nnn[nH]3)c2)ncc1C1CC1)C1CCC1 [Example 94, Cyclobutanecarboxylic acid (3-{5-cyclopropyl-2-[3-(2H-tetrazol-5-yl)-phenylamino]-pyrimidin-4-ylamino}-propyl)-amide]
Second: O=C(NCCCNc1nc(Nc2ccc(I)nc2)ncc1C1CC1)C1CCC1 [Example 98, Cyclobutanecarboxylic acid {3-[5-cyclopropyl-2-(6-iodo-pyridin-3-ylamino)-pyrimidin-4-ylamino]-propyl}-amide]
The IC50 of the first is higher: 100 to 1000 nM for the first, less than 100 nM for the second. The second is the more potent here.

`O=C(NCCCNc1nc(Nc2ccc(Cl)nc2)ncc1C1CC1)C1CCC1` [Example 99, Cyclobutanecarboxylic acid {3-[2-(6-chloro-pyridin-3-ylamino)-5-cyclopropyl-pyrimidin-4-ylamino]-propyl}-amide] and `CN(C)CCN(C)c1ccc(Nc2ncc(C3CC3)c(NCCCNC(=O)C3CCC3)n2)cn1` [Example 100, Cyclobutanecarboxylic acid [3-(5-cyclopropyl-2-{6-[(2-dimethylamino-ethyl)-methyl-amino]-pyridin-3-ylamino}-pyrimidin-4-ylamino)-propyl]-amide] cannot be ordered by IC50: less than 100 nM for the first, less than 100 nM for the second.
